How the values were obtained:
[1] = Octanol-water distribution coefficient; format: physicochemical; settings: 1-octanol / DI water, absorbance at 330 nm
Description: Each compound was dissolved in a minimum amount of DMSO: CI1 (0.9 mg in 200 μl), CI2 (5.3 mg in 200 μl), CI3 (5.4 mg in 200 μl). Ten ml of DI water and 10 ml of 1-octanol were added in each compound and vigorously shaken for 2 min. and the vials of the compounds were settled down overnight. The phases were separated and UV-spectra of each phase were analyzed. Distribution coefficient of each compound was determined using absorbance of aqueous phases and organic phases at 330 nm.

[2] = system: J774 cells; assay: Intracellular reactive oxygen species, H2DCFDA probe fluorescence microscopy; format: cell-based, murine; settings: 5 μM BF4 for 24 h, then probe, 5 J/cm2 405 nm laser, compared with probe alone
Description: J774 cells were incubated with 5 μM BF4 for 24 h and on the next day 5 μg/ml of 5- (and -6)-chloromethyl-2′-7′-dichlorodihydrofluoresceine diacetate, (CMH2DCFDA, Molecular Probes, Invitrogen) in complete medium was added and incubated for 30 min at 37° C., then cells were washed with PBS and 5 J/cm2 of 405 nm laser light (Nichia Corp, Detroit, Mich.) was delivered. Five to 10 min later a Leica DMR confocal laser fluorescence microscope (Leica Mikroskopie and Systeme GmbH, Wetzler, Germany) with excitation by a 488 nm argon laser and emission with a 530 nm+/−10 nm bandpass filter, and a 63×1.20 water immersion lens was used to image the cells at a resolution of 1024×1024 pixels. Images were acquired using TCS NT software (Version 1.6.551, Leica Lasertechnik, Heidelberg, Germany).

[3] = Singlet oxygen 1270-nm luminescence and quantum yield; format: physicochemical; settings: for Singlet oxygen luminescence decay curve in organic solvent: CH3OD, 449 nm excitation; for Singlet oxygen decay curve when solvent changed to aqueous buffer: deuterated PBS versus CH3OD
From the text: The sample in a 0.25 mm quartz cell was illuminated within the resonant cavity as described above. Singlet oxygen phosphorescence at 1270 nm was monitored by a nitrogen-cooled germanium detector (Model EO-817, North Coast Scientific Corp, Santa Rosa, Calif.). Photoexcitation of the sample studied was induced by a 5 ns 355 nm laser pulse from a Q-switched Nd:YAG laser (Continuum Surelite II, Santa Clara, Calif.) equipped with an optical parametric oscillator (Opotek, Carlsbad, Calif.). Sample in deuterated PBS (pD ˜6.9) or in deuterated methanol (CH3OD) was excited with 449 nm wavelength.

[4] = system: CT26 cells; assay: PDT phototoxicity, MTT assay; format: cell-based, murine; settings: 2 μM, 80 J/cm2 of light
Description: When the cells reached 80% confluence, they were washed with PBS and harvested with 2 mL of 0.25% trypsin-EDTA solution (Sigma). Cells were then centrifuged and counted in trypan blue to ensure viability and plated at density of 5000/well in flat-bottom 96 well plates (Fisher Sci, Pittsburgh, Pa.). Cells were allowed 24 h to attach.
On the following day dilutions of the fullerenes were prepared in complete RPMI medium and added to the cells at […] for 24 h incubation as described. Prior to illumination the fullerene solution was removed and fresh complete medium was replaced and the illumination (150 mW/cm2 white light, 1-80 J/cm2) was performed. The light spot covered 9 wells which were considered as one experimental group. All wells in a group were illuminated at the same time. […]
Following PDT treatment the cells were returned to the incubator overnight and the phototoxicity was measured using a 4 h MTT assay read at 560 nm using a microplate spectrophotometer (Spectra Max 340 PC, Molecular Devices, Sunnyvale, Calif.). […]
Briefly cells were treated with PDT sufficient to kill 80% of cells (5 J/cm2 for J774, 20 J/cm2 for LLC and 80 J/cm2 for CT26). […] Samples were incubated in the dark for 1 h at 37° C. and fluorescence was measured (excitation 400 nm, emission 505 nm). The protein per sample was measured with bicinchoninic acid protein assay.

With C[N+]1(C)CC2c3c4c5c6c3c3c(c7ccc8c9ccc%10c%11c%12c%13c%14c(c6c6c3c7c8c(c9c%10%13)c%146)=C3C5C(C=C4)C(C=C%11)C3%12)C2C1.[I-] (stereo not drawn) [CI1] the LogKow [1] was 2.15, the “Octanol-water partition constant Kow” value [1] was 140.80 and the “Fluorescence of intracellular ROS probe after illumination” value [2] was “large increase in fluorescence”. For the same molecule, the “Singlet oxygen luminescence decay curve in organic solvent” value (“Singlet oxygen luminescence decay curve” below) [3] was “very similar luminescence decay curves”, the “Singlet oxygen decay curve when solvent changed to aqueous buffer” value [3] was “almost disappeared” and the “Lethal dose of PDT (share of cells killed)” value [4] was 80%.

With C[N+]1(C)Cc2c(c3c4ccc5c6c7c8c9c%10c%11c%12c%13c(c%14c%12c%12c(c2c2c%12c%11c9c(c4c58)c32)C2C[N+](C)(C)CC%142)C=CC2C%13C=%10C7C2C=C6)C1.[I-].[I-] (stereo not drawn) [CI2] the LogKow [1] was 0.11 and the “Octanol-water partition constant Kow” value [1] was 1.28.

In the case of C[N+]1(C)Cc2c3c4c5c6c7c8c9c(c%10c8c8c(c%11c%12c(c%13c%14ccc%15c(c2C1)c4c1c%15c%14c2c%13c%11c8c7c2c61)C[N+](C)(C)C%12)C1C[N+](C)(C)CC%101)C=CC3C95.[I-].[I-].[I-] (stereo not drawn) [CI3], the LogKow [1] is reported as −0.43, the “Octanol-water partition constant Kow” value [1] is reported as 0.37 and the “Singlet oxygen luminescence decay curve” value [3] is reported as “very similar luminescence decay curves”. For the same molecule, the “Singlet oxygen quantum yield in O2 saturated D2O, higher than that found in air” value ([3]; O2 saturated D2O versus air saturated) was “about 50%”, the “Singlet oxygen decay curve when solvent changed to aqueous buffer” value [3] was “remained almost unchanged” and the “Singlet oxygen luminescence in aqueous buffer saturated with nitrogen” value ([3]; nitrogen saturated aqueous buffer) was “luminescence disappeared”. The “Lethal dose of PDT (share of cells killed)” value [4] was 60%.

In the case of O=C(NC(CO)CO)C1(C(=O)NC(CO)CO)C2c3c4c5c6c3c3c(c7ccc8c9ccc%10c%11ccc%12c%13c(c%14c6c6c3c7c8c3c9c%10c(c%13%11)c%14c36)C5C%12C=C4)C21 (stereo not drawn) [NI1], the LogKow [1] is reported as −1.61 and the “Octanol-water partition constant Kow” value [1] is reported as 0.025.

For O=C(NC(CO)CO)C1(C(=O)NC(CO)CO)c2c1c1c3ccc4c5c6c7c(c8c9c7c7c%10c%11c%12c(ccc%13c2c2c1c1c3c4c6c7c1c%10c2c%12%13)C(C=C8)C9%11)C1C5C1(C(=O)NC(CO)CO)C(=O)NC(CO)CO (stereo not drawn) [NI2], the LogKow [1] was −1.49 and the “Octanol-water partition constant Kow” value [1] was 0.032.

With Cc1cc2nc3c(=O)[nH]c(=O)nc-3n(C[C@H](O)[C@H](O)[C@H](O)CO)c2cc1C [riboflavin, Riboflavin, reference compound] the “Singlet oxygen luminescence decay curve” value [3] was “somewhat larger” and the “Singlet oxygen decay curve when solvent changed to aqueous buffer” value [3] was “remained almost unchanged”.
